Test results from US20190375708A1 (VenatoRx Pharmaceuticals, Inc., priority 2018, published 2019).

Legend:
[1] = system: HBV replication in HepAD38 cells; assay: Anti-HBV replication assay in HepAD38 cells (QPCR of extracellular HBV DNA); format: cell-based, HBV (genotype D, serotype ayw); settings: Hepatitis B virus, 168 h, 7 days incubation, extracellular HBV DNA by QPCR, read-out: Anti-HBV EC50
Outline: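 Compounds (1 log10 serial dilutions, […]) were left 7 days on tetracycline-free HepAD38 cultures, a HepG2 line with tet-controlled HBV genotype D. EC50 came from 4-parameter regression of percent inhibition versus vehicle, using supernatant HBV DNA copies/mL measured by QPCR.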

[2] = In vitro cytotoxicity assay (MTT cell viability) in HepG2 cells; format: cell-based, human; settings: human
Outline: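 CC50 values reflect loss of HepG2 viability after a 7-day exposure at 37 °C, 5% CO2. After 3-4 h with MTT, solubilized formazan was quantified at 492 nm relative to vehicle wells.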

Row | SMILES | EC50 [1] [µM] | CC50 at 7 days [2] [µM]
1 | Cc1cc(NC(=O)c2c(Cl)c(C(=O)C(=O)NCC(C)(C)O)n(C)c2C)ccc1F [Example 364, 4-chloro-N-(4-fluoro-3-methylphenyl)-5-(2-((2-hydroxy-2-methylpropyl)amino)-2-oxoacetyl)-1,2-dimethyl-1H-pyrrole-3-carboxamide] | < 0.05 | 5 to 30
2 | Cc1cc(NC(=O)c2c(C)c(C(=O)C(=O)NC(C)(C)C)n(CCF)c2C)cnc1F [Example 225, 5-(2-(tert-butylamino)-2-oxoacetyl)-N-(6-fluoro-5-methylpyridin-3-yl)-1-(2-fluoroethyl)-2,4-dimethyl-1H-pyrrole-3-carboxamide] | 0.5 to 1 | > 30
3 | Cc1cc(NC(=O)c2c(C)c(C(=O)C(=O)Nc3ccc(F)c(F)c3)n(C)c2C)ccc1F [Example 231, 5-(2-((3,4-difluorophenyl)amino)-2-oxoacetyl)-N-(4-fluoro-3-methylphenyl)-1,2,4-trimethyl-1H-pyrrole-3-carboxamide] | < 0.05 | 5 to 30
4 | O=C(NC1(CO)CC(F)(F)C1)C(=O)c1c(Cl)c(C(=O)Nc2ccnc(F)c2)c2n1CCCC2 [Example 511, 2-chloro-3-(2-((3,3-difluoro-1-(hydroxymethyl)cyclobutyl)amino)-2-oxoacetyl)-N-(2-fluoropyridin-4-yl)-5,6,7,8-tetrahydroindolizine-1-carboxamide] | 0.05 to 0.499 | > 30
5 | Cc1c(C(=O)Nc2ccc(F)c(F)c2)c(C)n(C)c1C(=O)C(=O)Nc1ccc(F)c(F)c1 [Example 293, N-(3,4-difluorophenyl)-5-(2-((3,4-difluorophenyl)amino)-2-oxoacetyl)-1,2,4-trimethyl-1H-pyrrole-3-carboxamide] | < 0.05 | 5 to 30
6 | O=C(N[C@H]1CCC[C@H]1O)C(=O)c1c(Cl)c(C(=O)Nc2ccc(F)c(Cl)c2)c2n1CCCC2 [Example 514, 2-chloro-N-(3-chloro-4-fluorophenyl)-3-(2-(((1S,2R)-2-hydroxycyclopentyl)amino)-2-oxoacettyl)-5,6,7,8-tetrahydroindolizine-1-carboxamide] | 0.05 to 0.499 | 5 to 30
7 | Cc1noc([C@@H](C)NC(=O)C(=O)c2c(Cl)c(C(=O)Nc3ccc(F)c(F)c3)c3n2CCC3)n1 [Example 567, (R)-6-chloro-N-(3,4-difluorophenyl)-5-(2-((1-(3-methyl-1,2,4-oxadiazol-5-yl)ethyl)amino)-2-oxoacetyl)-2,3-dihydro-1H-pyrrolizine-7-carboxamide] | < 0.05 | > 30
8 | Cc1csc(NC(=O)C(=O)c2c(C)c(C(=O)Nc3ccc(F)c(C)c3)c(C)n2C)n1 [Example 211, N-(4-fluoro-3-methylphenyl)-1,2,4-trimethyl-5-(2-((4-methylthiazol-2-yl)amino)-2-oxoacetyl)-1H-pyrrole-3-carboxamide] | < 0.05 | > 30
9 | Cc1nnc(NC(=O)C(=O)c2c(C)c(C(=O)Nc3ccc(F)c(C)c3)c(C)n2C)o1 [Example 305, N-(4-fluoro-3-methylphenyl)-1,2,4-trimethyl-5-(2-((5-methyl-1,3,4-oxadiazol-2-yl)amino)-2-oxoacetyl)-1H-pyrrole-3-carboxamide] | > 1 | > 30
10 | Cc1cc(NC(=O)c2c(C)c(C(=O)C(=O)NC3(c4noc(C5CC5)n4)CCCC3)n(C)c2C)ccc1F [Example 637, 5-(2-((1-(5-cyclopropyl-1,2,4-oxadiazol-3-yl)cyclopentyl)amino)-2-oxoacetyl)-N-(4-fluoro-3-methylphenyl)-1,2,4-trimetthyl-1H-pyrrole-3-carboxamide] | < 0.05 | > 30
11 | Cc1cc(NC(=O)c2c(C)c(C(=O)C(=O)NC34CC5CC(C3)C(O)C(C5)C4)n(C)c2C)ccc1F [Example 59, N-(4-fluoro-3-methylphenyl)-5-(2-(((1s,3R,4s,5S,7s)-4-hydroxyadamantan-1-yl)amino)-2-oxoacetyl)-1,2,4-trimethyl-1H-pyrrole-3-carboxamide] | < 0.05 | > 30
